Measurements taken from patent publication US20260297092A1, “PYRAZOLOPYRIMIDINE DERIVATIVES AS INHIBITORS OF NLRP3” (Takeda Pharmaceutical Company Limited, priority 2023, published 2026).
pIC50: −log10 of the molar value. Values belong to the compound of their own block, whether it stands above or below them.

Columns and labels:
[1] = system: NLRP3 inflammasome (IL-1β production in THP-1 cells); test: IL-1β TR-FRET Assay (percentage of inhibition at 300 nM, 6 μM or 10 μM); assay type: cell-based, human; conditions: LPS priming, ATP activation; for inhibition at 0.3 µM: THP-1, 300 nM, read-out: IL-1β inhibitory rate at 300 nM (%); for inhibition at 6 µM: THP-1, 6 μM, read-out: IL-1β inhibitory rate at 6 μM (%)
Procedure, shortened: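 THP-1 cells were differentiated with 25 ng/mL IFN-γ for 24 h, primed with 50 ng/mL LPS in serum-free medium for 24 h, then given compound for 30 min before 20 mM ATP for 2 h. Supernatant IL-1β was measured by HTRF after 16-24 h at room temperature. Inhibition was normalized between DMSO (high) and 3 μM MCC-950 (low).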

[2] = system: TNF-α (NF-κB pathway, THP-1 cells); test: TNF-α Assay (IC50); assay type: cell-based, human; conditions: Homo sapiens, 600 ng/mL LPS, 3 hours
Procedure, shortened: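 THP-1 cells differentiated to macrophages with 25 ng/mL IFN for 24 h, plated 40,000/well in serum-free medium, preincubated with compounds 30 min at 37 °C, then stimulated with 600 ng/mL LPS for 3 h. Supernatant TNF-α measured by ELISA; IC50 from four-parameter logistic fit, 100% inhibition defined by TPCA-1.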

Compound: Cc1cc(C)c(-n2cc3c(=O)[nH]c(OCCCCN(C)C)nc3n2)c(O)c1 [Example 129, 6-[4-(dimethylamino)butoxy]-2-(2-hydroxy-4,6-dimethylphenyl)-2,5-dihydro-4H-pyrazolo[3,4-d]pyrimidin-4-one]
inhibition at 0.3 µM ([1]; Homo sapiens): 98% | pIC50 [2]: < 4.52

Compound: CCOc1nc2nn(-c3c(C)cc(C)cc3O)c(Cl)c2c(=O)[nH]1 [Example 26, 3-chloro-6-ethoxy-2-(2-hydroxy-4,6-dimethylphenyl)-2,5-dihydro-4H-pyrazolo[3,4-d]pyrimidin-4-one]
inhibition at 0.3 µM ([1]; Homo sapiens): 94% | pIC50 [2]: < 4.52

Compound: Cc1cc(C2CC2)cc(C)c1-n1cc2c(=O)[nH]c(-c3ccncn3)nc2n1 [Example 171, 2-(4-cyclopropyl-2,6-dimethylphenyl)-6-(pyrimidin-4-yl)-2,5-dihydro-4H-pyrazolo[3,4-d]pyrimidin-4-one]
inhibition at 0.3 µM ([1]; Homo sapiens): 100% | pIC50 [2]: < 4.52

Compound: COc1nc2nn(-c3c(C)cc(C4CC4)cc3OC(F)F)cc2c(=O)[nH]1 [Example 252, 2-[4-cyclopropyl-2-(difluoromethoxy)-6-methylphenyl]-6-methoxy-2,5-dihydro-4H-pyrazolo [3,4-d]pyrimidin-4-one]
inhibition at 6 µM ([1]; Homo sapiens): 103% | pIC50 [2]: < 4.52

Compound: CCOc1nc2nn(-c3c(F)cc(C)cc3OC)cc2c(=O)[nH]1 [Example 93, 6-ethoxy-2-(2-fluoro-6-methoxy-4-methylphenyl)-2,5-dihydro-4H-pyrazolo[3,4-d]pyrimidin-4-one]
inhibition at 0.3 µM ([1]; Homo sapiens): 80% | pIC50 [2]: < 4.52

Compound: CCOc1nc2nn(-c3c(F)cc(C)cc3CC(F)(F)F)cc2c(=O)[nH]1 [Example 134, 6-ethoxy-2-[2-fluoro-4-methyl-6-(2,2,2-trifluoroethyl)phenyl]-2,5-dihydro-4H-pyrazolo[3,4-d]pyrimidin-4-one]
inhibition at 0.3 µM ([1]; Homo sapiens): 96% | pIC50 [2]: < 4.52

Compound: CO[C@H]1COCC[C@@H]1c1nc2nn(-c3c(C)cc(C4CC4)cc3C)cc2c(=O)[nH]1 (racemic) [Example 311, racemic mixture of 1,5-anhydro-3-[2-(4-cyclopropyl-2,6-dimethylphenyl)-4-oxo-4,5-dihydro-2H-pyrazolo[3,4-d]pyrimidin-6-yl]-2,3-dideoxy-4-O-methyl-L-threo-pentitol and 1,5-anhydro-3-[2-(4-cyclopropyl-2,6-dimethylphenyl)-4-oxo-4,5-dihydro-2H-pyrazolo[3,4-d]pyrimidin-6-yl]-2,3-dideoxy-4-O-methyl-D-threo-pentitol]
inhibition at 6 µM ([1]; Homo sapiens): 102% | pIC50 [2]: < 4.52

Compound: CCOc1cc(C)c(-n2cc3c(=O)[nH]c(OCC)nc3n2)c(F)c1 [Example 160, 6-ethoxy-2-(4-ethoxy-2-fluoro-6-methylphenyl)-2,5-dihydro-4H-pyrazolo[3,4-d]pyrimidin-4-one]
inhibition at 0.3 µM ([1]; Homo sapiens): 84% | pIC50 [2]: < 4.52

Compound: CCOc1nc2nn(-c3ccc(C)cc3O)cc2c(=O)[nH]1 [Example 56, 6-ethoxy-2-(2-hydroxy-4-methylphenyl)-2,5-dihydro-4H-pyrazolo[3,4-d]pyrimidin-4-one]
inhibition at 0.3 µM ([1]; Homo sapiens): 100% | pIC50 [2]: < 4.52

The next lines start with results.

pIC50 [2]: < 4.52
Compound: CCOc1nc2nn(-c3c(F)cc(C)cc3CC)cc2c(=O)[nH]1 [Example 76, 6-ethoxy-2-(2-ethyl-6-fluoro-4-methylphenyl)-2,5-dihydro-4H-pyrazolo[3,4-d]pyrimidin-4-one]
inhibition at 0.3 µM ([1]; Homo sapiens): 94%

pIC50 [2]: < 4.52
Compound: CCOc1nc2nn(-c3c(C)cc(OC(F)F)nc3C)cc2c(=O)[nH]1 [Example 226, 2-[6-(difluoromethoxy)-2,4-dimethylpyridin-3-yl]-6-ethoxy-2,5-dihydro-4H-pyrazolo[3,4-d]pyrimidin-4-one]
inhibition at 6 µM ([1]; Homo sapiens): 106%

pIC50 [2]: < 4.52
Compound: CCOc1nc2nn(-c3ccc(C)cc3O)c(C)c2c(=O)[nH]1 [Example 127, 6-ethoxy-2-(2-hydroxy-4-methylphenyl)-3-methyl-2,5-dihydro-4H-pyrazolo[3,4-d]pyrimidin-4-one]
inhibition at 0.3 µM ([1]; Homo sapiens): 98%

pIC50 [2]: < 4.52
Compound: CCOc1nc2nn(-c3c(C)cc(C4(F)CC4)cc3F)cc2c(=O)[nH]1 [Example 182, 6-ethoxy-2-[2-fluoro-4-(1-fluorocyclopropyl)-6-methylphenyl]-2,5-dihydro-4H-pyrazolo[3,4-d]pyrimidin-4-one]
inhibition at 0.3 µM ([1]; Homo sapiens): 102%

pIC50 [2]: < 4.52
Compound: Cc1nccc(-c2nc3nn(-c4c(C)cc(C5CC5)cc4C)cc3c(=O)[nH]2)n1 [Example 287, 2-(4-cyclopropyl-2,6-dimethylphenyl)-6-(2-methylpyrimidin-4-yl)-2,5-dihydro-4H-pyrazolo[3,4-d]pyrimidin-4-one]
inhibition at 6 µM ([1]; Homo sapiens): 99%

pIC50 [2]: < 4.52
Compound: Cc1cc(C)c(-n2cc3c(=O)[nH]c(-c4ccccc4)nc3n2)c(O)c1 [Example 5, 2-(2-hydroxy-4,6-dimethylphenyl)-6-phenyl-2,5-dihydro-4H-pyrazolo[3,4-d]pyrimidin-4-one]
inhibition at 0.3 µM ([1]; Homo sapiens): 99%

pIC50 [2]: < 4.52
Compound: CCOc1nc2nn(-c3ccc(C)cc3O)c(CC)c2c(=O)[nH]1 [Example 140, 6-ethoxy-3-ethyl-2-(2-hydroxy-4-methylphenyl)-2,5-dihydro-4H-pyrazolo[3,4-d]pyrimidin-4-one]
inhibition at 0.3 µM ([1]; Homo sapiens): 93%

pIC50 [2]: < 4.52
Compound: COc1ccc(-c2nc3nn(-c4c(C)cc(C)cc4O)cc3c(=O)[nH]2)nc1 [Example 21, 2-(2-hydroxy-4,6-dimethylphenyl)-6-(5-methoxypyridin-2-yl)-2,5-dihydro-4H-pyrazolo[3,4-d]pyrimidin-4-one]
inhibition at 0.3 µM ([1]; Homo sapiens): 98%

pIC50 [2]: < 4.52
Compound: COCc1nc2nn(-c3c(C)cc(C)cc3O)cc2c(=O)[nH]1 [Example 28, 2-(2-hydroxy-4,6-dimethylphenyl)-6-(methoxymethyl)-2,5-dihydro-4H-pyrazolo[3,4-d]pyrimidin-4-one]
inhibition at 0.3 µM ([1]; Homo sapiens): 101%

pIC50 [2]: < 4.52
Compound: Cc1cc(C)c(-n2cc3c(=O)[nH]c(O[C@H]4CCOC4)nc3n2)c(O)c1 [Example 14, 2-(2-hydroxy-4,6-dimethylphenyl)-6-{[(3S)-oxolan-3-yl]oxy}-2,5-dihydro-4H-pyrazolo[3,4-d]pyrimidin-4-one]
inhibition at 0.3 µM ([1]; Homo sapiens): 96%

pIC50 [2]: < 4.52
Compound: CCOc1nc2nn(-c3ccc(C4CC4)cn3)cc2c(=O)[nH]1 [Example 130, 2-(5-cyclopropylpyridin-2-yl)-6-ethoxy-2,5-dihydro-4H-pyrazolo[3,4-d]pyrimidin-4-one]
inhibition at 10 µM ([1]; Homo sapiens, THP-1, 10 μM, read-out: IL-1β inhibitory rate at 10 μM (%)): 37%

pIC50 [2]: < 4.52
Compound: CCOc1nc2nn(-c3c(C)cc(C)cc3C(F)F)cc2c(=O)[nH]1 [Example 159, 2-[2-(difluoromethyl)-4,6-dimethylphenyl]-6-ethoxy-2,5-dihydro-4H-pyrazolo[3,4-d]pyrimidin-4-one]
inhibition at 0.3 µM ([1]; Homo sapiens): 103%

pIC50 [2]: < 4.52
Compound: Cc1cc(C2CC2)cc(C)c1-n1cc2c(=O)[nH]c(C3CCCO3)nc2n1 (single isomer, unassigned) [Example 227, 2-(4-cyclopropyl-2,6-dimethylphenyl)-6-[(2R)-oxolan-2-yl]-2,5-dihydro-4H-pyrazolo[3,4-d]pyrimidin-4-one or 2-(4-cyclopropyl-2,6-dimethylphenyl)-6-[(2S)-oxolan-2-yl]-2,5-dihydro-4H-pyrazolo[3,4-d]pyrimidin-4-one (HPLC Method A: tR1)]
IL-1β inhibitory rate at 300 nM (%) ([1]; 300 nM, 0.3 µM): 100%
